Laboratory results as given in article PMC12177922, “In Vivo Ribosome-Amplified MetaBOlism, RAMBO, Effect Observed by Real Time Pulse Chase, RTPC, NMR Spectroscopy” (Biochemistry, 2025).

What was measured:
Type in all cases: biochemical
[1] = target: T1, PFK-A (Geobacillus stearothermophilus, UniProt P00512); assay: direct 1H NMR kinetic assay (FBP peak); conditions: substrate inhibition; 1 mM F6P, 1 nM enzyme, pH 7.5, 10 mM sodium phosphate, 50 mM KCl, 10 mM MgCl2, 10 °C, no ribosomes
T1 construct: gene pfkA; commercial lyophilized enzyme (Sigma-Aldrich)

[2] = target: T2, PYK-F (Escherichia coli, UniProt P0AD61); assay: direct 1H NMR kinetic assay (pyruvate methyl peak); conditions: 2 mM PEP, 4 mM ADP, pH 7.5, 10 °C, no ribosomes; 0-8x of 50 μg/mL
T2 construct: gene pykF; full length, 470 residues, 50 kDa monomer, N-terminal 6xHis tag kept, pET-28a(+), expressed in E. coli BL21(DE3), Ni-NTA purified, homotetramer

[3] = target: T3, LDH-A (Escherichia coli, UniProt P52643, form not given, species not given); assay: direct 1H NMR kinetic assay (lactate methyl peak); conditions: substrate inhibition; 0.5 mM NADH, 0.04 nM enzyme, pH 7.5, 10 mM sodium phosphate, 50 mM KCl, 10 mM MgCl2, 10 °C, no ribosomes
T3 construct: gene ldhA; commercial recombinant enzyme (Sigma-Aldrich); authors doubt its source; printed P33232 is the quinone-dependent LldD, not an NADH-dependent LDH, so identity unresolved

SMILES | reduced activity [2] | also measured
Nc1ncnc2c1ncn2[C@@H]1O[C@H](COP(=O)(O)OP(=O)(O)OP(=O)(O)O)[C@@H](O)[C@H]1O [ATP] |  | KI [1]: 5.6 ± 1.2 mM
NC[C@H]1O[C@H](O[C@H]2[C@H](O)[C@@H](O[C@H]3O[C@H](CO)[C@@H](O)[C@H](N)[C@H]3O)[C@H](N)C[C@@H]2N)[C@H](O)[C@@H](O)[C@@H]1O [Kan] | Ths, Kan and Str reduced PYK-F activity in both the presence and absence of ribosomes | 
CC(=O)C(=O)O [PYR] |  | KI [3]: 0.495 ± 0.074 mM
CN[C@@H]1[C@H](O[C@H]2[C@H](O[C@H]3[C@H](O)[C@@H](O)[C@H](N=C(N)N)[C@@H](O)[C@@H]3N=C(N)N)O[C@@H](C)[C@]2(O)C=O)O[C@@H](CO)[C@H](O)[C@H]1O [Str] | Ths, Kan and Str reduced PYK-F activity in both the presence and absence of ribosomes | 
